Measured values published in PubChem BioAssay (NCI).
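Grown in 96-well plates, cells were treated for 48 hours with each compound at five concentrations. Insufficient inhibition: endpoint recorded as highest concentration tested. TGI: total growth inhibition.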

Columns and labels:
Experiment in all cases: NCI anticancer screen, dose series, 48 h
DMS 114 small cell lung = system: DMS 114 small cell lung
RXF 393 renal = system: RXF 393 renal
NCI-H23 lung = system: NCI-H23 lung
UACC-257 melanoma = system: UACC-257 melanoma
SF-268 CNS = system: SF-268 CNS
HOP-62 NSCLC = system: HOP-62 NSCLC
MOLT-4 leukemia = system: MOLT-4 leukemia
HCT-116 colon = system: HCT-116 colon
UO-31 renal = system: UO-31 renal
A498 renal = system: A498 renal
ACHN renal = system: ACHN renal
HOP-92 NSCLC = system: HOP-92 NSCLC
TK-10 renal = system: TK-10 renal
SK-MEL-28 melanoma = system: SK-MEL-28 melanoma
LXFL 529 NSCLC = system: LXFL 529 NSCLC
A549 NSCLC = system: A549 NSCLC
SF-539 CNS = system: SF-539 CNS
M14 melanoma = system: M14 melanoma
SW-620 colon = system: SW-620 colon
COLO 205 colon = system: COLO 205 colon
OVCAR-5 ovarian = system: OVCAR-5 ovarian
IGROV1 ovarian = system: IGROV1 ovarian
K-562 leukemia = system: K-562 leukemia
SNB-19 CNS = system: SNB-19 CNS
HT29 colon = system: HT29 colon
SNB-75 CNS = system: SNB-75 CNS
SK-MEL-5 melanoma = system: SK-MEL-5 melanoma
SF-295 CNS = system: SF-295 CNS
HCC-2998 colon = system: HCC-2998 colon
HCT-15 colon = system: HCT-15 colon
OVCAR-8 ovarian = system: OVCAR-8 ovarian
MALME-3M melanoma = system: MALME-3M melanoma
NCI-H460 lung = system: NCI-H460 lung
SR leukemia = system: SR leukemia
CCRF-CEM leukemia = system: CCRF-CEM leukemia
M19-MEL melanoma = system: M19-MEL melanoma
OVCAR-4 ovarian = system: OVCAR-4 ovarian
NCI-H226 lung = system: NCI-H226 lung
HL-60(TB) leukemia = system: HL-60(TB) leukemia
SN12C renal = system: SN12C renal
HOP-18 NSCLC = system: HOP-18 NSCLC
SNB-78 CNS = system: SNB-78 CNS
786-0 renal = system: 786-0 renal
LOX IMVI melanoma = system: LOX IMVI melanoma
OVCAR-3 ovarian = system: OVCAR-3 ovarian
MDA-MB-435 = system: MDA-MB-435
XF 498 CNS = system: XF 498 CNS
RPMI-8226 leukemia = system: RPMI-8226 leukemia
HS 578T breast = system: HS 578T breast
CAKI-1 renal = system: CAKI-1 renal
MCF7 breast = system: MCF7 breast
DLD-1 colon = system: DLD-1 colon
U251 CNS = system: U251 CNS
KM12 colon = system: KM12 colon
SK-MEL-2 melanoma = system: SK-MEL-2 melanoma
NCI-H522 lung = system: NCI-H522 lung
MDA-MB-231 breast = system: MDA-MB-231 breast
NCI/ADR-RES ovarian = system: NCI/ADR-RES ovarian
EKVX NSCLC = system: EKVX NSCLC
BT-549 breast = system: BT-549 breast
T-47D breast = system: T-47D breast
DU-145 prostate = system: DU-145 prostate
PC-3 prostate = system: PC-3 prostate
MDA-N = system: MDA-N
SK-OV-3 ovarian = system: SK-OV-3 ovarian
DMS 273 small cell lung = system: DMS 273 small cell lung
UACC-62 melanoma = system: UACC-62 melanoma
KM20L2 colon = system: KM20L2 colon

Work on `CCCc1c2c([nH]c(=O)c1C)C(=O)c1[nH]c(=O)c(C)c(CCC)c1C2=O` yielded a TGI (DMS 114 small cell lung) of 16.4 µM, a TGI (RXF 393 renal) of 69.2 µM and a TGI (NCI-H23 lung) of 57.4 µM. For the same compound, the TGI (UACC-257 melanoma) was 6.99 µM, the TGI (SF-268 CNS) was 87.4 µM and the TGI (HOP-62 NSCLC) was greater than 100 µM. It also gave a TGI (MOLT-4 leukemia) of 57 µM, a TGI (HCT-116 colon) of 36.7 µM and a TGI (UO-31 renal) greater than 100 µM. The TGI (A498 renal) was greater than 100 µM, the TGI (ACHN renal) was 47.6 µM and the TGI (HOP-92 NSCLC) was 93.8 µM. It also gave a TGI (TK-10 renal) greater than 100 µM, a TGI (SK-MEL-28 melanoma) greater than 100 µM and a TGI (LXFL 529 NSCLC) greater than 100 µM. It also gave a TGI (A549 NSCLC) of 72.7 µM, a TGI (SF-539 CNS) greater than 100 µM and a TGI (M14 melanoma) of 17.3 µM. It also gave a TGI (SW-620 colon) of 20.2 µM, a TGI (COLO 205 colon) of 55.1 µM and a TGI (OVCAR-5 ovarian) greater than 100 µM. For the same compound, the TGI (IGROV1 ovarian) was 88.4 µM, the TGI (K-562 leukemia) was 67.1 µM and the TGI (SNB-19 CNS) was 55 µM. It also gave a TGI (HT29 colon) of 18.7 µM, a TGI (SNB-75 CNS) of 55.9 µM and a TGI (SK-MEL-5 melanoma) of 17.6 µM. It also gave a TGI (SF-295 CNS) greater than 100 µM, a TGI (HCC-2998 colon) greater than 100 µM and a TGI (HCT-15 colon) of 58.3 µM. The TGI (OVCAR-8 ovarian) was 17.8 µM, the TGI (MALME-3M melanoma) was 22.2 µM and the TGI (NCI-H460 lung) was 77.3 µM. The TGI (SR leukemia) was 42.2 µM, the TGI (CCRF-CEM leukemia) was 73.2 µM and the TGI (M19-MEL melanoma) was 9.52 µM. The TGI (OVCAR-4 ovarian) was 54.6 µM, the TGI (NCI-H226 lung) was greater than 100 µM and the TGI (HL-60(TB) leukemia) was 24.8 µM. It also gave a TGI (SN12C renal) of 22.2 µM, a TGI (HOP-18 NSCLC) greater than 100 µM and a TGI (SNB-78 CNS) greater than 100 µM. It also gave a TGI (786-0 renal) greater than 100 µM, a TGI (LOX IMVI melanoma) of 55.3 µM and a TGI (OVCAR-3 ovarian) of 5.97 µM.

`Cc1cc2c(c3c1c1ccccc1n3C)C(=O)C=CC2=O` showed a TGI (RXF 393 renal) of 30.5 µM, a TGI (NCI-H23 lung) of 31 µM and a TGI (MDA-MB-435) greater than 100 µM. For the same compound, the TGI (UACC-257 melanoma) was 69 µM, the TGI (SF-268 CNS) was 70.5 µM and the TGI (XF 498 CNS) was 37.9 µM. It also gave a TGI (RPMI-8226 leukemia) of 26.5 µM, a TGI (HS 578T breast) of 80.5 µM and a TGI (HOP-62 NSCLC) greater than 100 µM. The TGI (MOLT-4 leukemia) was 12 µM, the TGI (CAKI-1 renal) was greater than 70.2 µM and the TGI (MCF7 breast) was 25.8 µM. The TGI (HCT-116 colon) was 43.8 µM, the TGI (UO-31 renal) was 36.5 µM and the TGI (A498 renal) was greater than 100 µM. For the same compound, the TGI (ACHN renal) was greater than 64.6 µM, the TGI (DLD-1 colon) was 20.4 µM and the TGI (HOP-92 NSCLC) was 31.4 µM. It also gave a TGI (TK-10 renal) of 65 µM, a TGI (SK-MEL-28 melanoma) of 47.9 µM and a TGI (LXFL 529 NSCLC) of 16.7 µM. For the same compound, the TGI (A549 NSCLC) was greater than 100 µM, the TGI (SF-539 CNS) was 71 µM and the TGI (M14 melanoma) was 88 µM. The TGI (U251 CNS) was 45.1 µM, the TGI (SW-620 colon) was 28.7 µM and the TGI (KM12 colon) was 57.9 µM. It also gave a TGI (COLO 205 colon) greater than 100 µM, a TGI (OVCAR-5 ovarian) greater than 100 µM and a TGI (IGROV1 ovarian) greater than 78.2 µM. It also gave a TGI (SK-MEL-2 melanoma) of 51.9 µM, a TGI (NCI-H522 lung) of 34.7 µM and a TGI (K-562 leukemia) greater than 54 µM. For the same compound, the TGI (MDA-MB-231 breast) was 75 µM, the TGI (SNB-19 CNS) was greater than 100 µM and the TGI (HT29 colon) was greater than 70.2 µM. It also gave a TGI (NCI/ADR-RES ovarian) greater than 100 µM, a TGI (SNB-75 CNS) greater than 100 µM and a TGI (EKVX NSCLC) greater than 100 µM. For the same compound, the TGI (SK-MEL-5 melanoma) was greater than 90.1 µM, the TGI (SF-295 CNS) was greater than 88.4 µM and the TGI (BT-549 breast) was 31.4 µM. The TGI (HCC-2998 colon) was greater than 92.5 µM, the TGI (T-47D breast) was 48.8 µM and the TGI (DU-145 prostate) was greater than 100 µM. For the same compound, the TGI (HCT-15 colon) was 36.5 µM, the TGI (OVCAR-8 ovarian) was 56.4 µM and the TGI (MALME-3M melanoma) was greater than 82.6 µM. For the same compound, the TGI (NCI-H460 lung) was greater than 100 µM, the TGI (PC-3 prostate) was 36.3 µM and the TGI (SR leukemia) was 4.56 µM. The TGI (CCRF-CEM leukemia) was greater than 24 µM, the TGI (MDA-N) was 62.5 µM and the TGI (OVCAR-4 ovarian) was 30.6 µM. For the same compound, the TGI (SK-OV-3 ovarian) was greater than 100 µM, the TGI (NCI-H226 lung) was greater than 100 µM and the TGI (DMS 273 small cell lung) was 55.9 µM. For the same compound, the TGI (HL-60(TB) leukemia) was 16 µM, the TGI (UACC-62 melanoma) was 51.1 µM and the TGI (SN12C renal) was greater than 82.7 µM. It also gave a TGI (SNB-78 CNS) of 98.7 µM, a TGI (786-0 renal) of 17.3 µM and a TGI (LOX IMVI melanoma) of 35.6 µM. It also gave a TGI (OVCAR-3 ovarian) of 22.9 µM.

`CCCCCC(CN1CCOCC1)C(=O)/C=C/c1ccccc1` (stereo not given) showed a TGI (DMS 114 small cell lung) of 5.17 µM, a TGI (RXF 393 renal) of 3.47 µM and a TGI (NCI-H23 lung) of 11.9 µM. The TGI (UACC-257 melanoma) was 7.83 µM, the TGI (SF-268 CNS) was 5.02 µM and the TGI (XF 498 CNS) was 3.29 µM. The TGI (RPMI-8226 leukemia) was 9.03 µM, the TGI (HOP-62 NSCLC) was 16.9 µM and the TGI (MOLT-4 leukemia) was 4.61 µM. For the same compound, the TGI (HCT-116 colon) was 3.34 µM, the TGI (UO-31 renal) was 20.1 µM and the TGI (HOP-92 NSCLC) was 8.54 µM. The TGI (SK-MEL-28 melanoma) was 19.1 µM, the TGI (A549 NSCLC) was 12 µM and the TGI (SF-539 CNS) was 4.71 µM. For the same compound, the TGI (M14 melanoma) was 5.44 µM, the TGI (U251 CNS) was 9.19 µM and the TGI (SW-620 colon) was 3.33 µM. For the same compound, the TGI (KM12 colon) was 3.79 µM, the TGI (KM20L2 colon) was 10.9 µM and the TGI (COLO 205 colon) was 13.9 µM. It also gave a TGI (OVCAR-5 ovarian) of 11.1 µM, a TGI (K-562 leukemia) of 5.85 µM and a TGI (SNB-19 CNS) of 13.2 µM. It also gave a TGI (HT29 colon) of 10.3 µM, a TGI (SNB-75 CNS) of 20 µM and a TGI (EKVX NSCLC) of 22.5 µM. For the same compound, the TGI (SK-MEL-5 melanoma) was 3.42 µM, the TGI (SF-295 CNS) was 10.2 µM and the TGI (HCC-2998 colon) was 4.46 µM. The TGI (HCT-15 colon) was 4.92 µM, the TGI (MALME-3M melanoma) was 6.42 µM and the TGI (NCI-H460 lung) was 11.1 µM. The TGI (SR leukemia) was 8.5 µM, the TGI (CCRF-CEM leukemia) was 6.72 µM and the TGI (M19-MEL melanoma) was 7.05 µM. For the same compound, the TGI (OVCAR-4 ovarian) was 8.19 µM, the TGI (SK-OV-3 ovarian) was 11.8 µM and the TGI (NCI-H226 lung) was 9.31 µM. It also gave a TGI (DMS 273 small cell lung) of 6.1 µM, a TGI (HL-60(TB) leukemia) of 5.42 µM and a TGI (UACC-62 melanoma) of 3.37 µM. For the same compound, the TGI (SN12C renal) was 10.5 µM, the TGI (786-0 renal) was 3.14 µM and the TGI (LOX IMVI melanoma) was 2.67 µM. For the same compound, the TGI (OVCAR-3 ovarian) was 8.64 µM.
